Source: US20050182025A1, “Amidinylphenyl compounds and their use as fungicides” (priority 2002, published 2005)

Columns and labels:
Type in all cases: in vivo
[1] = test system: Erysiphe graminis f. sp. tritici; test: Test A: preventive spray on wheat seedlings, wheat powdery mildew, disease rating; conditions: wheat seedlings sprayed to run-off, inoculated the following day with Erysiphe graminis f. sp. tritici, rated after 7 days at 20° C.; test concentration not given
Outline: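 Preventive test: Erysiphe graminis f. sp. tritici spore dust applied one day after run-off spraying of seedlings with acetone/water/surfactant suspension, 200 ppm equating to 500 g/ha. Plants held 7 days at 20 °C; ratings give % disease control versus controls, 100 full, 0 none.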

[2] = test system: Puccinia recondita; test: Test B: preventive spray on wheat seedlings, wheat leaf rust, disease rating; conditions: wheat seedlings sprayed to run-off, inoculated the following day with Puccinia recondita, 24 h saturated atmosphere then 6 days at 20° C.; test concentration not given
Outline: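 Preventive test: seedlings inoculated with Puccinia recondita one day after run-off spraying with test suspension (acetone/water, 250 ppm Trem 014; 200 ppm equals 500 g/ha). Rating after 24 h at 20° C in saturation plus 6 days in 20° C growth chamber; 0–100 scale versus controls.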

[3] = test system: Septoria nodorum; test: Test C: preventive spray on wheat seedlings, Septoria glume blotch, disease rating; conditions: wheat seedlings sprayed to run-off, inoculated the following day with Septoria nodorum, 48 h saturated atmosphere then 9 days at 20° C.; test concentration not given
Outline: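 Preventive test: one day after spraying (to run-off; 200 ppm ≈ 500 g/ha, in acetone/water with 250 ppm surfactant), seedlings received a S. nodorum spore suspension. After 48 h in saturated air and 9 days in a growth chamber, both at 20° C., % disease control versus controls was scored.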

Row | SMILES | Test A disease control rating (100 = 100% disease control, 0 = no disease control relative to the controls) [1] [%] | Test B disease control rating (100 = 100% disease control, 0 = no disease control relative to the controls) [2] [%] | Test C disease control rating (100 = 100% disease control, 0 = no disease control relative to the controls) [3] [%]
1 | CCN(C)C=Nc1cc(C)c(OCCCC(C)(C)C)cc1C [compound 199] | 100 | 100 | 100
2 | CCC(CC)Oc1cc(C)c(N=CN(C)C)cc1C [Compound 34] | 96 | 100 | 0
3 | CCC(CCC(C)C)Oc1cc(C)c(N=CN(C)C)cc1C (stereo not drawn) [Compound 31] | 93 | 100 | 53
4 | CCN(CC)C(=S)Nc1cc(Cl)c(OCCCC(C)(C)C)cc1C [compound 177] | 96 | 100 | 100
5 | CCN(C)C(=S)Nc1cc(C)c(OCCCC(C)C)cc1C [compound 106] | 100 | 100 | 100
6 | CCCN(C)C=Nc1cc(C(C)C)c(OCCC[Si](C)(C)C)cc1C [compound 75] | 100 | 100 | 100
7 | C=CCN(C)C=Nc1cc(Cl)c(OCCC[Si](C)(C)C)cc1C [compound 56] | 100 | 100 | 100
8 | Cc1cc(OCCCCCCl)c(C)cc1N=CN(C)C [Compound 17] | 92 | 100 | 100
9 | CCN(C)C(=S)Nc1cc(Cl)c(OCCCC(C)C)cc1Cl [compound 124] | 98 | 98 | 100
10 | Cc1cc(NC(=S)N(C)C)c(C)c(Cl)c1OCCCC(C)(C)C [compound 138] | 98 | 74 | 60
11 | C=C(COc1cc(C)c(N=CN(C)C)cc1C)C[Si](C)(C)C [Compound 38] | 96 | 100 | 20
12 | CCC(CCC(C)C)Oc1cc(C)c(N=C(C)N(C)C)cc1C (stereo not drawn) [compound 100] | 0 | 86 | 76
13 | Cc1cc(OCC=CC(C)(C)C)c(C)cc1N=CN(C)C [Compound 40] | 97 | 100 | 100
14 | CCOC(C)(C)CCCOc1cc(C)c(N=CN(C)C)cc1C [Compound 44] | 99 | 100 | 99
15 | CCN(C)C(=S)Nc1cc(Cl)c(OCCCC(C)C)cc1Cl [compound 125] | 96 | 97 | 100
16 | CCN(CC)C(=S)Nc1cc(Cl)c(OCCC[Si](C)(C)C)cc1C [compound 170] | 99 | 100 | 99
